The values below are quoted from earlier work in patent publication US12441755B2, “Galactoside inhibitor of galectins” (GALECTO BIOTECH AB, priority 2019, dated 2025).

In one data set the target is Galectin-1 (Homo sapiens, UniProt P09382). The following applies: T. Delaine 2016; read-out: affinity to Galectin-1; cited from earlier work.
The next data set deals with galectins. The following applies: Leffler 2001, Leffler et al. 2004; read-out: Kd, all galectins; cited from earlier work.

Chain of Galectin-1 (P09382 whole entry, species assumed): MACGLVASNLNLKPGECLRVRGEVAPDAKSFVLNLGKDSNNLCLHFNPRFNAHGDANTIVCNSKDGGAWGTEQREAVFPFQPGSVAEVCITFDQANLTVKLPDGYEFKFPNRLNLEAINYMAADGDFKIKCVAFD

For the molecule `OCC1O[C@@H](SC2O[C@H](CO)C(O)C(n3cc(-c4ccsc4)nn3)[C@H]2O)C(O)C(n2cc(-c3ccsc3)nn2)[C@H]1O` (some centres unmarked), at Galectin-1, the Kd is less than 0.01 µM. In the case of `OC[C@H]1O[C@@H](O[C@H]2[C@H](O)[C@@H](O)C(O)O[C@@H]2CO)[C@H](O)[C@@H](O)[C@H]1O` (some centres unmarked) [lactose], the Kd on galectins is 100 to 1000 µM.
